These results are taken from PubChem BioAssay (NCI).

SMILES strings stand for the structures. Several values for one entry are separate records, joined by “and”; a condition that tells them apart may be missing. Identical values can stand only once.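 Test compounds were applied to cells in 96-well plates for 48 hours at 5 doses. At the GI50, growth is halved. At the TGI there is no net growth.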

Some test systems named below: COLO 205 colon; HCT-15 colon; IGROV1 ovarian; MCF7 breast; NCI-H23 lung; NCI-H460 lung; UACC-257 melanoma; HL-60(TB) leukemia.
Assay in all cases: NCI anticancer screen, dose series, 48 h

Consider `c1cncc(C2ONC3=NCCN32)c1` (stereo not drawn), for which the GI50 was 27.7 µM in the assay on COLO 205 colon; 11.5 µM in the assay on HCT-15 colon; 24 µM with IGROV1 ovarian; 17.5 µM in the assay with MCF7 breast; 54 µM with NCI-H23 lung; 31 µM in the assay with NCI-H460 lung. Further, the GI50 with UACC-257 melanoma was > 100 µM. Further, the TGI with COLO 205 colon was > 100 µM; with HCT-15 colon, 54.7 µM; in the assay with IGROV1 ovarian, > 100 µM; with MCF7 breast it was > 100 µM; in the assay on NCI-H23 lung, > 100 µM; with NCI-H460 lung, > 100 µM. Further, the TGI in the assay with UACC-257 melanoma is > 100 µM.
For the compound `O=C(OC[C@@H]1CO1)c1cccc2c(=O)c3ccccc3[nH]c12`, the GI50 is 0.246 µM in the assay with COLO 205 colon; 0.307 µM in the assay with HCT-15 colon; 0.329 µM in the assay on IGROV1 ovarian; 0.0469 µM in the assay with MCF7 breast; 0.288 µM with NCI-H23 lung; 0.38 µM with NCI-H460 lung. For the same compound, in the assay on UACC-257 melanoma, the GI50 was 0.517 µM. For the same compound, the TGI turned out to be 1.41 µM in the assay on COLO 205 colon; 3.36 µM in the assay on HCT-15 colon; 1.83 µM in the assay with IGROV1 ovarian; 0.642 µM with MCF7 breast; 1.25 µM with NCI-H23 lung; 1.75 µM with NCI-H460 lung. The same compound gave a TGI in the assay on UACC-257 melanoma of 4.31 µM.
Turning to `O=C1CCS/C(=N/S(=O)(=O)c2ccc(N3N=C4c5ccccc5CC4C3c3cccs3)cc2)N1Cc1ccccc1` (stereo not drawn), the GI50 in the assay with COLO 205 colon was 36.8 µM; in the assay with HCT-15 colon, 15.9 µM; with IGROV1 ovarian, 17.4 µM; in the assay with MCF7 breast, > 100 µM; in the assay on NCI-H23 lung, 16.7 µM; with NCI-H460 lung it was > 100 µM. The GI50 in the assay with UACC-257 melanoma is 24.2 µM. Further, the TGI is > 100 µM with COLO 205 colon; 31.7 µM in the assay on HCT-15 colon; 52.4 µM in the assay with IGROV1 ovarian; > 100 µM in the assay with MCF7 breast; 31.8 µM with NCI-H23 lung; > 100 µM with NCI-H460 lung. In the assay on UACC-257 melanoma, this compound displayed a TGI of 50.7 µM.
For the compound `Cc1ccnc(Nc2ccc([N+](=O)[O-])c(NCCN3CCOCC3)n2)c1`, the GI50 is 0.00502 µM in the assay with COLO 205 colon; 0.0061 µM with HCT-15 colon; 0.0144 µM with HL-60(TB) leukemia; 0.0389 µM and 0.0579 µM in the assay with IGROV1 ovarian; 0.00334 µM in the assay with MCF7 breast; 0.0352 µM and 0.0156 µM in the assay with NCI-H23 lung. Besides, the GI50 with NCI-H460 lung is 0.00431 µM. For the same compound, the TGI in the assay with COLO 205 colon was 0.0417 µM and 0.0333 µM; with HCT-15 colon, 31.5 µM; in the assay with HL-60(TB) leukemia, 0.0464 µM; in the assay with IGROV1 ovarian it was 42.4 µM; with MCF7 breast, 20.5 µM; in the assay with NCI-H23 lung, 40.8 µM. Further, the TGI with NCI-H460 lung is > 100 µM.
`O=C(/C=C(\[O-])c1ccccc1)CCCCCCC(=O)/C=C(\[O-])c1ccccc1.O=C(/C=C(\[O-])c1ccccc1)CCCCCCC(=O)/C=C(\[O-])c1ccccc1.O=C(/C=C(\[O-])c1ccccc1)CCCCCCC(=O)/C=C(\[O-])c1ccccc1.[Nd+3].[Nd+3]`: the GI50 with COLO 205 colon was > 50 µM; in the assay with HCT-15 colon, > 50 µM; in the assay with HL-60(TB) leukemia, 3.05 µM; with IGROV1 ovarian, > 50 µM; with NCI-H23 lung, > 50 µM; in the assay with NCI-H460 lung, > 50 µM. For the same compound, the GI50 in the assay with UACC-257 melanoma is > 50 µM. Further, the TGI in the assay on COLO 205 colon, in the assay with HCT-15 colon, in the assay with HL-60(TB) leukemia, in the assay on IGROV1 ovarian, in the assay on NCI-H23 lung and in the assay with NCI-H460 lung was > 50 µM in each case. In the assay on UACC-257 melanoma, the TGI was > 50 µM.
Take `C[C@]12CCC3=NCCN3C1=CC[C@@H]1[C@@H]2CC[C@@]2(C)[C@H]1CC[C@]2(C)O`: the TGI in the assay on COLO 205 colon is 75.5 µM; with HCT-15 colon it was > 100 µM; with IGROV1 ovarian, > 100 µM; with MCF7 breast, > 100 µM; in the assay on NCI-H23 lung, > 100 µM; in the assay with NCI-H460 lung, > 100 µM. This compound yielded a TGI in the assay with UACC-257 melanoma of 73.1 µM.
Take `O=C(C(=O)c1cc(Br)ccc1O)c1cc(Br)ccc1O`: the GI50 is 18.6 µM in the assay with COLO 205 colon; 4.05 µM with HCT-15 colon; 2.2 µM in the assay with HL-60(TB) leukemia; 2.57 µM in the assay on IGROV1 ovarian; 7.34 µM in the assay with MCF7 breast; 3.38 µM in the assay with NCI-H23 lung. In addition, the GI50 in the assay on UACC-257 melanoma was 2.21 µM. Moreover, the TGI is 44.5 µM in the assay on COLO 205 colon; 24.1 µM in the assay with HCT-15 colon; 6.16 µM with HL-60(TB) leukemia; 8.58 µM in the assay on IGROV1 ovarian; > 100 µM in the assay on MCF7 breast; 19.1 µM in the assay with NCI-H23 lung. The compound further came in with a TGI with UACC-257 melanoma of 8.43 µM.
In the case of `NC(=O)c1ncn(C2OC(CO)C(O)C2O)c1N` (stereo not drawn), the GI50 in the assay on COLO 205 colon, in the assay with HCT-15 colon, with IGROV1 ovarian, with MCF7 breast, in the assay with NCI-H23 lung and in the assay on NCI-H460 lung was > 100 µM each time. Besides, the GI50 with UACC-257 melanoma was > 100 µM. Also, the TGI with COLO 205 colon, in the assay with HCT-15 colon, with IGROV1 ovarian, in the assay with MCF7 breast, in the assay on NCI-H23 lung and in the assay with NCI-H460 lung was > 100 µM in each case. Also, the TGI in the assay on UACC-257 melanoma is > 100 µM.
Take `Nc1ncc(C2[C@H](CNC(=O)c3cc(Br)c[nH]3)C(CNC(=O)c3cc(Br)c[nH]3)[C@@H]2c2cnc(N)[nH]2)[nH]1` (stereo partly drawn): the GI50 in the assay on HCT-15 colon, in the assay with IGROV1 ovarian, in the assay with MCF7 breast, with NCI-H23 lung, with NCI-H460 lung and with UACC-257 melanoma was > 50 µM in each case. The TGI in the assay with HCT-15 colon, with IGROV1 ovarian, in the assay on MCF7 breast, in the assay on NCI-H23 lung, in the assay with NCI-H460 lung and with UACC-257 melanoma was > 50 µM throughout.
For `O=C(Nc1ccc(C(F)(F)F)cc1[N+](=O)[O-])c1cccnc1`, the TGI in the assay with COLO 205 colon was > 100 µM; in the assay on HCT-15 colon, > 100 µM; in the assay on HL-60(TB) leukemia it was > 100 µM; in the assay on IGROV1 ovarian, > 100 µM; with NCI-H23 lung, > 100 µM; with NCI-H460 lung, 36.8 µM. Besides, the TGI with UACC-257 melanoma was > 100 µM.
For the compound `Cn1ccnc1C(=O)/C=C/c1ccc(C(=O)Nc2c(F)c(F)c(F)c(F)c2F)cc1`, the GI50 is 1.82 µM in the assay on COLO 205 colon; 1.11 µM with HCT-15 colon; 1.8 µM with HL-60(TB) leukemia; 1.75 µM in the assay with IGROV1 ovarian; 2.01 µM with NCI-H23 lung; 1.78 µM in the assay with NCI-H460 lung. Moreover, the GI50 in the assay on UACC-257 melanoma was 3.1 µM. The TGI was 3.63 µM in the assay with COLO 205 colon; 4.3 µM in the assay with HCT-15 colon; 4.74 µM in the assay with HL-60(TB) leukemia; 3.98 µM in the assay with IGROV1 ovarian; 5.35 µM in the assay on NCI-H23 lung; 5.11 µM in the assay with NCI-H460 lung. Moreover, in the assay with UACC-257 melanoma, the TGI was determined as 10.4 µM.
